# Laboratory results as given in patent US7371734B2, “Oligonucleotide compositions and their use for the modulation of immune responses” (Bioniche Life Sciences Inc., priority 2002, dated 2008).
# Marks after values point to notes of the source that are not given here.
# Tests used:
# Human dendritic cells [1] = experiment: CD80 levels at the DC cell surface (flow cytometry); type: cell-based; conditions: 100 μg, 48 hours
# In short: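 Human dendritic cells from two donors, at 1.0×10^5 cells/ml, were exposed 48 h to 100 μg of 6-base polynucleotides. Surface CD80 was measured by flow cytometry with a FITC anti-CD80 antibody. Values are % CD80^hi DC.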
# female BALB/C mice = experiment: Vaccination with hepatitis surface antigen (intramuscular), anti-HbsAg end-point dilution ELISA; type: in vivo
# Procedure: Immunization with recombinant hepatitis B surface antigen (HbsAg; Cortex Biochemical, San Leandro, Calif., USA) combined with aluminum hydroxide (Alum; SuperFos Biosector, Vedback, Denmark) and/or with N3A, N6A or N6B polynucleotides, was conducted on 6-8 week old female BALB/C mice (Charles River, St-Constant, Qc, Canada). Each mouse (5 mice per group) received a single intramuscular injection into the tibialis muscle of a solution containing: Saline (Group 1), HbsAg 1 μg (Group 2), HbsAg 1 μg+Alum 10 μg (Group 3), HbsAg 1 μg+Alum 10 μg+N3A 10 μg (Group 4), HbsAg 1 μg+Alum 10 μg+N3A 100 μg (Group 5), HbsAg 1 μg+Alum 10 μg+N3B10 μg (Group 6), HbsAg 1 μg+Alum 10 μg+N3B100 μg (Group 7), HbsAg 1 μg+Alum 10 μg+N6A 10 μg (Group 8), HbsAg 1 μg+Alum 10 μg+N6A 100 μg (Group 9), HbsAg 1 μg+Alum 10 μg+N6B 10 μg (Group 10) and HbsAg 1 μg+Alum 10 μg+N6B 100 μg (Group 11) in a total volume of 50 μl at day 0 and day 21. Plasma was recovered at day 31.
# Antibodies specific to HbsAg were detected and quantified by end-point dilution assay ELISA. Briefly, a solid phase of HbsAg protein (0.1 μg per well, overnight at 4° C.) was used to capture anti-HbsAg in the plasma (1 hour at 37° C.), which were then detected with horseradish peroxidase-conjugated goat anti-mouse IgG (total), IgG1 and IgG2a following the instructions of the manufacturer (Clonetyping system, Southern Biotechnology Inc., Birmingham, Ala., USA). […] Data are expressed in Table 13 as the mean±SD of 5 mice per group.
# Human dendritic cells [2] = experiment: CD86 levels at the DC cell surface (flow cytometry); type: cell-based; conditions: 100 μg, 48 hours
# In short: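 Human DCs (from donors B and C) at 1.0×10^5 cells/ml were exposed 48 h to 100 μg of 6-base polynucleotides. Surface CD86 was measured by flow cytometry with a PE-conjugated anti-CD86 mAb. Values are % CD86^hi DC after treatment.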
# Human dendritic cells [3] = experiment: Induction of IL-1beta production by DC (ELISA); type: cell-based; conditions: 100 μg, 48 hours
# In short: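 Cells from three donors, seeded at 1.0×10^5 cells/ml, were exposed for 48 hours to 100 μg of 6-base polynucleotides. IL-1beta in culture supernatant measured by ELISA; values are fold increase over untreated control cells.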
# Human dendritic cells [4] = experiment: CD40 levels at the DC cell surface (flow cytometry); type: cell-based; conditions: 100 μg, 48 hours
# In short: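 DCs from two donors, seeded at 1.0×10^5 cells/ml, were exposed for 48 h to 100 μg of 6-base polynucleotides. Surface CD40 was then measured by flow cytometry with a FITC anti-CD40 mAb. Values are the percentage of CD40^hi DC, meaning above-baseline CD40 expression.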
# Human dendritic cells [5] = experiment: Increase in cell size and granularity of DC (flow cytometry); type: cell-based; conditions: 100 μg polynucleotide, 48 hours
# In short: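 Human dendritic cells from three donors, seeded at 1.0×10^5 cells/ml and exposed 48 hours to 100 μg of 6-base 3-OH, 5-OH polynucleotides. Flow cytometry; percentage of cells with forward scatter >500 units and side scatter >400 units.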
# [6] = HbsAg 1 μg + Alum 10 μg + polynucleotide 10 μg i.m. day 0 and 21, plasma day 31
# [7] = HbsAg 1 μg + Alum 10 μg + polynucleotide 100 μg i.m. day 0 and 21, plasma day 31
Substance,The percentage of CD80^hi DC following treatment (Human dendritic cells [1]; DC from individual B) [%],The percentage of CD80^hi DC following treatment (Human dendritic cells [1]; DC from individual C) [%],"End-point titers IgG1, mean ± SD (female BALB/C mice; [6])","End-point titers IgG2a, mean ± SD (female BALB/C mice; [6])","End-point titers IgG total, mean ± SD (female BALB/C mice; [6])","End-point titers IgG1, mean ± SD (female BALB/C mice; [7])","End-point titers IgG2a, mean ± SD (female BALB/C mice; [7])","End-point titers IgG total, mean ± SD (female BALB/C mice; [7])",The percentage of CD86^hi DC following treatment (Human dendritic cells [2]; DC from individual B),The percentage of CD86^hi DC following treatment (Human dendritic cells [2]; DC from individual C),IL-1beta production by DC (fold increase compared to untreated DC) (Human dendritic cells [3]; DC isolated from individual A) [fold],IL-1beta production by DC (fold increase compared to untreated DC) (Human dendritic cells [3]; DC isolated from individual B) [fold],IL-1beta production by DC (fold increase compared to untreated DC) (Human dendritic cells [3]; DC isolated from individual C) [fold],The percentage of CD40^hi DC following treatment (Human dendritic cells [4]; DC from individual B),The percentage of CD40^hi DC following treatment (Human dendritic cells [4]; DC from individual C) [%],Percentage of DC showing a FCS > 500 units and a SSC > 400 units (Human dendritic cells [5]; DC isolated from individual A) [%],Percentage of DC showing a FCS > 500 units and a SSC > 400 units (Human dendritic cells [5]; DC isolated from individual B) [%],Percentage of DC showing a FCS > 500 units and a SSC > 400 units (Human dendritic cells [5]; DC isolated from individual C) [%]
5′GGGTGG3′ [N3A],12,18,9300 ± 3365,272 ± 255,849 ± 386,13320 ± 12993,860 ± 719,1985 ± 1748,16%,37** %,1.1,1.1,1.0,36** %,20,8,15,31
"5′GGGAGG3′ [N6B] (DNA, backbone not given here; further chemistry not fully specified)",4,4,2880 ± 1126,187 ± 46,551 ± 309,3560 ± 1210,205 ± 76,660 ± 364,15%,33%,1.0,1.1,1.0,28** %,15,4,17,36
5′GGGTGG3′ [N3B],5,3,3460 ± 1680,120 ± 26,287 ± 142,4460 ± 1884,204 ± 129,437 ± 305,30** %,39** %,1.7,4.4,2.1,33** %,14,28,25,28
5′GGGAGG3′ [N6A] (unmodified DNA),15,17,2010 ± 2187,250 ± 257,439 ± 705,6420 ± 2528,291 ± 154,1185 ± 607,24** %,18%,1.0,1.1,0.9,35** %,15,9,22,21
